Each structure is given as a SMILES string. Bounds are passed on as bounds.

In assay [1] the target is T1, PRMT5 (Homo sapiens, UniProt O14744).
T1 construct: purchased Viva (custom protein)
Put plainly: PRMT5 biochemical IC50 assay with SAM as cofactor. As to conditions: PRMT5, SAM as cofactor; read-out: SAM IC50.

Assay [2] has as its target T1, PRMT5. Put plainly: PRMT5 biochemical IC50 assay with no cofactor. As to conditions: PRMT5, no cofactor; read-out: No Cofactor/rel IC50. From the text:
Table 1 indicates IC50 values (μM) against PRMT5 for exemplary compounds in the presence of SAM as cofactor, with no cofactor, and with MTA as cofactor, respectively (columns 4-6). […] Ki values can be calculated from the IC50 values as described in the Examples section. As detailed in the Examples section, for the assay performed in the presence of SAM, IC50=Ki×1.5 (Ki=IC50/1.5).

The target of assay [3] is T1, PRMT5. Briefly: PRMT5 biochemical IC50 assay with MTA as cofactor. The note with it: PRMT5, MTA as cofactor; read-out: MTA IC50.
The subject of assay [4] is HAP1 MTAP-intact cell line. Briefly: SDMA in-cell western assay, HAP1 MTAP-intact. Format: cell-based. The note with it: Homo sapiens, HAP1, SDMA in-cell western, HAP1 MTAP-intact; read-out: MTAP HAP1 intact IC50. The essentials: (§1)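 Isogenic HAP1 pair: the MTAP-intact line expresses endogenous MTAP, and the deleted line is MTAP-null. Symmetric dimethylarginine was detected by in-cell western and IC50 values derived for each line.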

Assay [5] relates to HAP1 MTAP-deleted cell line. Briefly: SDMA in-cell western assay, HAP1 MTAP-deleted. The note with it: for IC50: Homo sapiens, HAP1, SDMA in-cell western, HAP1 MTAP-deleted, read-out: HAP1 MTAP deleted IC50; for MTAP intact/deleted ratio: IC50 ratio HAP1 MTAP-intact / HAP1 MTAP-deleted, SDMA in-cell western. In kind it is cell-based. The method, boiled down:
as §1

Assay [6] has as its system HAP1 MTAP-deleted cell line. Put plainly: Viability assay, MTAP-deleted cell line. Format: cell-based. The note with it: Homo sapiens, HAP1, viability assay, MTAP-deleted cell line; read-out: HAP1 MTAP deleted viability. From the text: Table 1 additionally indicates IC50 values in a viability assay for the MTAP-deleted cell line (column 10), indicating the effect of treatment with compound on cell survival.

T1 sequence (O14744 whole entry): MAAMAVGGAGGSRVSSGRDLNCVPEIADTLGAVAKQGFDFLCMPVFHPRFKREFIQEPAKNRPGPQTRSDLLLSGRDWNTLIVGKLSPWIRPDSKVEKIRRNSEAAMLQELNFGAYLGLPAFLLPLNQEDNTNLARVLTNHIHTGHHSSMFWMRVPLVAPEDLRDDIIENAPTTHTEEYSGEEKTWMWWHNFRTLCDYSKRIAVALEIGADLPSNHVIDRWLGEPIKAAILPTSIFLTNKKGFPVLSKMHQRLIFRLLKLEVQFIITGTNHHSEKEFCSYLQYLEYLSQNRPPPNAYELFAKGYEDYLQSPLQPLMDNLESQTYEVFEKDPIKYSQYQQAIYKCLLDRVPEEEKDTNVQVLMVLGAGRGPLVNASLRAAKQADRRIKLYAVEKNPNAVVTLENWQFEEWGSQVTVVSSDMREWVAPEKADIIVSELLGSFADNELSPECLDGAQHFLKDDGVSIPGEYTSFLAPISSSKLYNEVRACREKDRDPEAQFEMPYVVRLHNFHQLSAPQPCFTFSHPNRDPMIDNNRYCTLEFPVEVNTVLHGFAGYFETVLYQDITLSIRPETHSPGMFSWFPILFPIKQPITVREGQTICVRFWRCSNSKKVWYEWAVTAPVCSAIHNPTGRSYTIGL
T1 sequence (Q9BQA1 whole entry partner): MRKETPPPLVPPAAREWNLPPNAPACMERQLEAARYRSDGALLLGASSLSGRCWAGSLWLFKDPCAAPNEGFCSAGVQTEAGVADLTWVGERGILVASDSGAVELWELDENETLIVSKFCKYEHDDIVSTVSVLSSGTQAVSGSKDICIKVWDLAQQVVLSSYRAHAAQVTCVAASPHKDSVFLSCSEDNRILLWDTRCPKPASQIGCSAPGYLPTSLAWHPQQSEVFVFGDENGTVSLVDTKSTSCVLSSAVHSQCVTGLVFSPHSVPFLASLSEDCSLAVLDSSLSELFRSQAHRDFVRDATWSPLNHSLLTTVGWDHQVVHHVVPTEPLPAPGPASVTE

Turning to `Cc1cc(NC(=O)C(=O)N2C[C@@H](C)CC[C@@H]2c2cc(F)c(F)c(F)c2)cnc1N` (single isomer, unassigned) [Compound 487], the IC50 is more than 500 nM in assay [1]; more than 500 nM in assay [2]; more than 500 nM in assay [3]; more than 1000 nM in assay [4]; more than 1000 nM in assay [5]; more than 10000 nM in assay [6]. Moreover, the MTAP intact/deleted ratio entry in assay [5] was “C (an IC50 ratio of less than 3 fold)”.
For the compound `C[C@H]1CC[C@H](c2ccc(Cl)c(Cl)c2)N(C(=O)C(=O)Nc2cncc(C(N)=O)c2)C1` (single isomer, unassigned) [Compound 488], the IC50 in assay [1] is 50 to 500 nM; in assay [2], 50 to 500 nM; in assay [3], less than 50 nM; in assay [4] it was more than 1000 nM; in assay [5] it was 100 to 1000 nM; in assay [6], 1000 to 10000 nM. In assay [5], the MTAP intact/deleted ratio result is listed as “A (an IC50 ratio greater than or equal to 10 fold)”.
As for `C[C@@H]1CC[C@@H](c2ccc(Cl)c(Cl)c2)N(C(=O)C(=O)Nc2cncc(C(N)=O)c2)C1` (single isomer, unassigned) [Compound 489], the IC50 was more than 500 nM in assay [1]; more than 500 nM in assay [2]; more than 500 nM in assay [3]; more than 1000 nM in assay [4]; more than 1000 nM in assay [5]; more than 10000 nM in assay [6]. For the same compound, the MTAP intact/deleted ratio entry in assay [5] is given as “C (an IC50 ratio of less than 3 fold)”.
`C[C@@H]1CC[C@@H](c2cc(Cl)cc(Cl)c2)N(C(=O)C(=O)Nc2cncc(C(N)=O)c2)C1` (single isomer, unassigned) [Compound 490]: the IC50 in assay [1] is more than 500 nM; in assay [2], more than 500 nM; in assay [3], more than 500 nM; in assay [4], more than 1000 nM; in assay [5], more than 1000 nM; in assay [6] it was more than 10000 nM. The MTAP intact/deleted ratio result in assay [5] is “C (an IC50 ratio of less than 3 fold)”.
Take `C[C@H]1CC[C@H](c2cc(Cl)cc(Cl)c2)N(C(=O)C(=O)Nc2cncc(C(N)=O)c2)C1` (single isomer, unassigned) [Compound 491]: the IC50 in assay [1] was 50 to 500 nM; in assay [2], 50 to 500 nM; in assay [3] it was less than 50 nM; in assay [4] it was more than 1000 nM; in assay [5] it was 100 to 1000 nM; in assay [6] it was 1000 to 10000 nM. Moreover, in assay [5], the MTAP intact/deleted ratio entry is given as “A (an IC50 ratio greater than or equal to 10 fold)”.
`C[C@@H]1CC[C@@H](c2ccc(N)nc2)N(C(=O)C(=O)Nc2cncc(C(N)=O)c2)C1` (single isomer, unassigned) [Compound 492]: the IC50 is 50 to 500 nM in assay [1]; less than 50 nM in assay [2]; less than 50 nM in assay [3]; more than 1000 nM in assay [4]; less than 100 nM in assay [5]; 1000 to 10000 nM in assay [6]. For the same compound, the MTAP intact/deleted ratio entry in assay [5] is reported as “A (an IC50 ratio greater than or equal to 10 fold)”.
In the case of `C[C@H]1CC[C@H](c2ccc(N)nc2)N(C(=O)C(=O)Nc2cncc(C(N)=O)c2)C1` (single isomer, unassigned) [Compound 493], the IC50 is more than 500 nM in assay [1]; more than 500 nM in assay [2]; more than 500 nM in assay [3]; more than 1000 nM in assay [4]; more than 1000 nM in assay [5]; more than 10000 nM in assay [6]. For the same compound, in assay [5], the MTAP intact/deleted ratio result is given as “C (an IC50 ratio of less than 3 fold)”.
On to `Cc1cc(NC(=O)C(=O)N2C[C@H](C)CC[C@H]2c2cccc(C(F)(F)F)c2)cnc1N` (single isomer, unassigned) [Compound 496], for which the IC50 in assay [1] is 50 to 500 nM; in assay [2] it was less than 50 nM; in assay [3] it was less than 50 nM; in assay [4], more than 1000 nM; in assay [5], less than 100 nM; in assay [6], 1000 to 10000 nM. In assay [5], the MTAP intact/deleted ratio result was “A (an IC50 ratio greater than or equal to 10 fold)”.
Take `Cc1cc(NC(=O)C(=O)N2C[C@H](C)CC[C@H]2c2ccc(NS(C)(=O)=O)cc2)cnc1N` (single isomer, unassigned) [Compound 499]: the IC50 is 50 to 500 nM in assay [1]; less than 50 nM in assay [2]; less than 50 nM in assay [3]; more than 1000 nM in assay [4]; 100 to 1000 nM in assay [5]; less than 1000 nM in assay [6]. Moreover, the MTAP intact/deleted ratio result in assay [5] is “A (an IC50 ratio greater than or equal to 10 fold)”.
Turning to `Cc1cc(NC(=O)C(=O)N2C[C@@H](C)CC[C@@H]2c2ccc3c(c2)CCCN3)cnc1N` (single isomer, unassigned) [Compound 503], the IC50 was more than 500 nM in assay [1]; more than 500 nM in assay [2]; more than 500 nM in assay [3]; more than 1000 nM in assay [4]; more than 1000 nM in assay [5]; more than 10000 nM in assay [6]. Besides, the MTAP intact/deleted ratio entry in assay [5] is “C (an IC50 ratio of less than 3 fold)”.
As for `Cc1cc(NC(=O)C(=O)N2C[C@H](C)CC[C@H]2c2ccc3c(c2)CCCN3)cnc1N` (single isomer, unassigned) [Compound 504], the IC50 in assay [1] is 50 to 500 nM; in assay [2], less than 50 nM; in assay [3], less than 50 nM; in assay [4], 100 to 1000 nM; in assay [5] it was less than 100 nM; in assay [6] it was less than 1000 nM. The MTAP intact/deleted ratio result in assay [5] is reported as “A (an IC50 ratio greater than or equal to 10 fold)”.
Consider `Cc1cc(NC(=O)C(=O)N2C[C@@H](C)CC[C@@H]2c2ccc(NS(C)(=O)=O)cc2)cnc1N` (single isomer, unassigned) [Compound 506], for which the IC50 in assay [1] is more than 500 nM; in assay [2], more than 500 nM; in assay [3], more than 500 nM; in assay [4], more than 1000 nM; in assay [5], more than 1000 nM; in assay [6], more than 10000 nM. The MTAP intact/deleted ratio result in assay [5] is on record as “B (an IC50 ratio greater than or equal to 3 fold but lower than 10 fold)”.
For the compound `Cc1cc(NC(=O)C(=O)N2C[C@@H](C)CC[C@@H]2c2cccc(C(F)(F)F)c2)cnc1N` (single isomer, unassigned) [Compound 507], the IC50 is more than 500 nM in assay [1]; more than 500 nM in assay [2]; more than 500 nM in assay [3]; more than 1000 nM in assay [4]; more than 1000 nM in assay [5]; more than 10000 nM in assay [6]. For the same compound, the MTAP intact/deleted ratio entry in assay [5] was “C (an IC50 ratio of less than 3 fold)”.
As to `C[C@@H]1CC[C@@H](c2ccc(C(F)(F)F)cc2)N(C(=O)C(=O)Nc2cncc(C(N)=O)c2)C1` (single isomer, unassigned) [Compound 508], the IC50 in assay [1] is more than 500 nM; in assay [2] it was more than 500 nM; in assay [3], more than 500 nM; in assay [4], more than 1000 nM; in assay [5] it was more than 1000 nM; in assay [6], more than 10000 nM. In assay [5], the MTAP intact/deleted ratio result is reported as “C (an IC50 ratio of less than 3 fold)”.
For `C[C@H]1CC[C@H](c2cccc(C(F)(F)F)c2)N(C(=O)C(=O)Nc2cncc(C(N)=O)c2)C1` (single isomer, unassigned) [Compound 509], the IC50 in assay [1] was 50 to 500 nM; in assay [2], 50 to 500 nM; in assay [3], less than 50 nM; in assay [4] it was more than 1000 nM; in assay [5], less than 100 nM; in assay [6], 1000 to 10000 nM. Also, the MTAP intact/deleted ratio result in assay [5] was “A (an IC50 ratio greater than or equal to 10 fold)”.

These data come from patent US11999727B2 (Tango Therapeutics, Inc., priority 2020, dated 2024).
